From US12448394B2, “Heterocyclic pyrazole derivatives as type III receptor tyrosine kinase inhibitors” (DEVELOPMENT CENTER FOR BIOTECHNOLOGY, priority 2019, dated 2025)
pIC50: −log10 of the molar value.

Experiments:
[1] = target: T1, MET kinase (Homo sapiens, UniProt P08581); assay: MET kinase assay (AlphaScreen, counter screen); type: biochemical; details: read-out: Ranking of IC50 values, MET
T1 construct: purchased SignalChem
In short: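 IC50 came from duplicate serial dilutions, with AlphaScreen detection of phosphorylated biotin-poly(Glu4:Tyr1). The reaction used 1 ng recombinant MET, 10 µM ATP […], and MOPS pH 7.0/MgCl2 buffer, ran 45 min at 30 °C, and was quenched with EDTA.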

[2] = tested on: THP-1 human acute monocytic leukemia cell with NRAS G12D mutation; assay: THP-1 cell proliferation assay (counter screen); type: cell-based; details: Homo sapiens, THP-1 cells, 72 hours treatment, CellTiter96, read-out: anti-proliferation activity THP-1 NRAS N12D, IC50 ranking
In short: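 Viability measured as 490 nm absorbance after 2–4 h with CellTiter96 AQueous One reagent, following 72 h treatment with rising compound concentrations. THP-1 cells, 5000/well, grown in RPMI 1640 with 10% FBS and 0.05 mM 2-mercaptoethanol at 37° C, 5% CO2, plated overnight before dosing.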

[3] = tested on: A375 melanoma cell with BRAF V600E mutation; assay: A375 cell proliferation assay (counter screen); type: cell-based, human; details: Homo sapiens, A-375, A375 cells, 72 hours treatment, CellTiter96, read-out: anti-proliferation activity A375 BRAF V600E, IC50 ranking
In short: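 A375 cells (BRAF V600E) seeded at 2000 cells/well in DMEM with 10% FBS, settled overnight at 37° C, 5% CO2, then exposed to increasing compound concentrations for 72 hours. Viability read by MTS-type CellTiter96 AQueous reagent, absorbance at 490 nm after 2–4 hours.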

[4] = tested on: HCC827 NSCLC cell with EGFR exon 19 deletion mutation; assay: HCC827 cell proliferation assay (counter screen); type: cell-based, human; details: Homo sapiens, HCC827 cells, 72 hours treatment, CellTiter96, read-out: anti-proliferation activity HCC827 EGFR Exon19 del, IC50 ranking
In short: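 HCC827 cells (EGFR exon 19 deletion) were seeded at 8000 cells/well in RPMI1640 with 10% FBS, then exposed to increasing compound concentrations for 72 h at 37 °C. Viability was read by CellTiter96 AQueous One (MTS), absorbance 490 nm after 2–4 h.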

T1 sequence (P08581 25-1390): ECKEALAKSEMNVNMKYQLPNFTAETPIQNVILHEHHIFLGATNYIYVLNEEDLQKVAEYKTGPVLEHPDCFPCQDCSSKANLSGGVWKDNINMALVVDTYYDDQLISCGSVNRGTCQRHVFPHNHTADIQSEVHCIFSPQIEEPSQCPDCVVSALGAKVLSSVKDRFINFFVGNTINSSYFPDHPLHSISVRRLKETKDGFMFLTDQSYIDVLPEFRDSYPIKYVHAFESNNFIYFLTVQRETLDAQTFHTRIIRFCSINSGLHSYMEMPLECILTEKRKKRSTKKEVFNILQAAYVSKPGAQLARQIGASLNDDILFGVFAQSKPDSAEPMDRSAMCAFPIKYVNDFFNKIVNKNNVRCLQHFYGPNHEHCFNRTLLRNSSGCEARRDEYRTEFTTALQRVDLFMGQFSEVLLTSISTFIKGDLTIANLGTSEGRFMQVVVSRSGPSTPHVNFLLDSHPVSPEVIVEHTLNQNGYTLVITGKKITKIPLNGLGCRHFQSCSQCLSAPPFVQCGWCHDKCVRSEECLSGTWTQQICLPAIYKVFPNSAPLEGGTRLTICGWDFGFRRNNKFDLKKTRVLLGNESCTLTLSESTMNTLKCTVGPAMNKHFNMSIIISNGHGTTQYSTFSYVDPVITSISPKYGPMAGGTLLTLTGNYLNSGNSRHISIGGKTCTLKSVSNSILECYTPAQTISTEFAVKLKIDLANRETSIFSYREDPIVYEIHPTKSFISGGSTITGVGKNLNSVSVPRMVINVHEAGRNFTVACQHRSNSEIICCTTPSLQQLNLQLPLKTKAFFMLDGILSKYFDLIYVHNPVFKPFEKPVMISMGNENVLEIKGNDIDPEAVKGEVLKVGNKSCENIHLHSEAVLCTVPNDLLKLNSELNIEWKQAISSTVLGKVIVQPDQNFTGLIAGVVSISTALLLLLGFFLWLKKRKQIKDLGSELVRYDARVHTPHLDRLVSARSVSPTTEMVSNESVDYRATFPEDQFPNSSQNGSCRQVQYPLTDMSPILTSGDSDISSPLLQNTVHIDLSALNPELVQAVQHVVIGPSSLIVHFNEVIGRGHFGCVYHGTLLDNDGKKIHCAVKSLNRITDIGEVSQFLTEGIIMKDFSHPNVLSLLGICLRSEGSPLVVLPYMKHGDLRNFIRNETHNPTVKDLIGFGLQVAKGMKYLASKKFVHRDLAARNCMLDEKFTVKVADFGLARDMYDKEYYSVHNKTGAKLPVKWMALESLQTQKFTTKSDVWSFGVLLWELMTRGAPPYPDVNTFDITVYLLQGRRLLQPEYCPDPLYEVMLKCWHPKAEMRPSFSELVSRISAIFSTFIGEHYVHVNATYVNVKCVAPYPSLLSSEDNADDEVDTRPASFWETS

SMILES | pIC50 [1] | pIC50 [2] | pIC50 [3] | pIC50 [4]
CC(C)n1ncc2ccc(-c3n[nH]c4c3Cc3sc(-c5ccc(CN6CCOCC6)cc5)cc3-4)cc21 [Compound 42, 4-(4-(3-(1-isopropyl-1H-indazol-6-yl)-1,4-dihydro-thieno[2′,3′:4,5]cyclopenta [1,2-c]pyrazol-6-yl)benzyl)morpholine] | < 6.00 | < 5.00 | < 5.00 | < 5.00
COc1cc(-c2cc3c(s2)Cc2c(-c4ccc5cnn(C)c5c4)n[nH]c2-3)ccc1C(=O)N1CCOCC1 [Compound 43, (2-methoxy-4-(3-(1-methyl-1H-indazol-6-yl)-1,4-dihydrothieno [2′,3′:4,5]cyclopenta [1,2-c]pyrazol-6-yl)phenyl)(morpholino) methanone] | < 6.00 | < 5.00 | < 5.00 | < 5.00
Cn1ncc2ccc(-c3n[nH]c4c3Cc3sc(-c5ccc(C(=O)N6CCOCC6)c(F)c5)cc3-4)cc21 [Compound 44, (2-fluoro-4-(3-(1-methyl-1H-indazol-6-yl)-1,4-dihydrothieno[2′,3′:4,5]cyclopenta[1,2-c]pyrazol-6-yl)phenyl)(morpholino) methanone] | < 6.00 | < 5.00 | < 5.00 | < 5.00
Cn1ncc2ccc(-c3n[nH]c4c3Cc3sc(-c5cnc(N)nc5)cc3-4)cc21 [Compound 45, 5-(3-(1-methyl-1H-indazol-6-yl)-1,4-dihydrothieno [2′,3′:4,5]cyclopenta[l,2-c]pyrazol-6-yl)pyrimidin-2-amine] | < 6.00 | < 5.00 | < 5.00 | < 5.00
Cn1cc(-c2cc3c(s2)Cc2c(-c4ccc5cnn(C)c5c4)n[nH]c2-3)cc1C(=O)N1CCOCC1 [Compound 46, (1-methyl-4-(3-(1-methyl-1H-indazol-6-yl)-1,4-dihydrothieno[2′,3′:4,5]cyclopenta[1,2-c]pyrazol-6-yl)-1H-pyrrol-2-yl) (morpholino)methanone] | < 6.00 | < 5.00 | < 5.00 | < 5.00
Cn1ncc2ccc(-c3n[nH]c4c3Cc3sc(-c5ccc(S(=O)(=O)N6CCOCC6)cc5)cc3-4)cc21 [Compound 47, 4-((4-(3-(1-methyl-1H-indazol-6-yl)-1,4-dihydro-thieno[2′,3′:4,5]cyclopenta [1,2-c]pyrazol-6-yl)phenyl)sulfonyl) morpholine] | < 6.00 | < 5.00 | < 5.00 | < 5.00
Cn1ncc2ccc(-c3n[nH]c4c3Cc3sc(-c5csc(C(=O)N6CCOCC6)c5)cc3-4)cc21 [Compound 48, (4-(3-(1-methyl-1H-indazol-6-yl)-1,4-dihydro-thieno[2′,3′:4,5]cyclopenta [1,2-c]pyrazol-6-yl)thiophen-2-yl) (morpholino)methanone] | < 6.00 | < 5.00 | < 5.00 | < 5.00
CN(C)C(=O)c1ccc(-c2cc3c(s2)Cc2c(-c4ccc5cnn(C)c5c4)n[nH]c2-3)cc1 [Compound 49, N,N-dimethyl-4-(3-(1-methyl-1H-indazol-6-yl)-1,4-dihydrothieno [2′,3′:4,5]cyclopenta [1,2-c]pyrazol-6-yl) benzamide] | < 6.00 | < 5.00 | < 5.00 | < 5.00
CN(C)S(=O)(=O)c1ccc(-c2cc3c(s2)Cc2c(-c4ccc5cnn(C)c5c4)n[nH]c2-3)cc1 [Compound 50, N,N-dimethyl-4-(3-(1-methyl-1H-indazol-6-yl)-1,4-dihydrothieno [2′,3′:4,5]cyclopenta [1,2-c]pyrazol-6-yl) benzenesulfonamide] | < 6.00 | < 5.00 | < 5.00 | < 5.00
Cn1ncc2ccc(-c3n[nH]c4c3Cc3sc(-c5ccc(CN6CCOCC6)s5)cc3-4)cc21 [Compound 51, 4-((5-(3-(1-methyl-1H-indazol-6-yl)-1,4-dihydro-thieno[2′,3′:4,5]cyclopenta [1,2-c]pyrazol-6-yl)thiophen-2-yl)methyl) morpholine] | < 6.00 | < 5.00 | < 5.00 | < 5.00
Cn1ncc2ccc(-c3n[nH]c4c3Cc3sc(-c5csc(CN6CCOCC6)c5)cc3-4)cc21 [Compound 52, 4-((4-(3-(1-methyl-1H-indazol-6-yl)-1,4-dihydro-thieno[2′,3′:4,5]cyclopenta [1,2-c]pyrazol-6-yl)thiophen-2-yl)methyl) morpholine] | < 6.00 | < 5.00 | < 5.00 | < 5.00
Cn1ncc2ccc(-c3n[nH]c4c3Cc3sc(-c5cc(F)c(CN6CCOCC6)c(F)c5)cc3-4)cc21 [Compound 53, 4-(2,6-difluoro-4-(3-(1-methyl-1H-indazol-6-yl)-1,4-dihydrothieno [2′,3′:4,5]cyclopenta [1,2-c]pyrazol-6-yl)benzyl)morpholine] | < 6.00 | < 5.00 | < 5.00 | < 5.00
C[C@@H]1CN(Cc2ccc(-c3cc4c(s3)Cc3c(-c5ccc6cnn(C)c6c5)n[nH]c3-4)cc2)C[C@H](C)O1 [Compound 54, (2S,6R)-2,6-dimethyl-4-(4-(3-(1-methyl-1H-indazol-6-yl)-1,4-dihydro-thieno[2′,3′:4,5]cyclopenta [1,2-c]pyrazol-6-yl)benzyl)morpholine] | < 6.00 | < 5.00 | < 5.00 | < 5.00
Cn1ncc2ccc(-c3n[nH]c4c3Cc3sc(-c5cc(C(=O)N6CCOCC6)ccn5)cc3-4)cc21 [Compound 56, (2-(3-(1-methyl-1H-indazol-6-yl)-1,4-dihydro-thieno[2′,3′:4,5]cyclopenta [1,2-c]pyrazol-6-yl)pyridin-4-yl)(morpholino) methanone] | < 6.00 | < 5.00 | < 5.00 | < 5.00
Cn1ncc2ccc(-c3n[nH]c4c3Cc3sc(C5=CCN(C(=O)N6CCOCC6)CC5)cc3-4)cc21 [Compound 57, (4-(3-(1-methyl-1H-indazol-6-yl)-1,4-dihydro-thieno[2′,3′:4,5]cyclopenta [1,2-c]pyrazol-6-yl)-3,6-dihydropyridin-1(2H)-yl) (morpholino)methanone] | < 6.00 | < 5.00 | < 5.00 | < 5.00
Cn1ncc2ccc(-c3n[nH]c4c3Cc3sc(C5CCN(C(=O)OC(C)(C)C)CC5)cc3-4)cc21 [Compound 58, tert-butyl-4-(3-(1-methyl-1H-indazol-6-yl)-1,4-dihydrothieno[2′,3′:4,5]cyclopenta[1,2-c]pyrazol-6-yl)piperidine-1-carboxylate] | < 6.00 | < 5.00 | < 5.00 | < 5.00
Cn1ncc2ccc(-c3n[nH]c4c3Cc3sc(-c5ccc(CN6CCOCC6=O)cc5)cc3-4)cc21 [Compound 59, 4-(4-(3-(1-methyl-1H-indazol-6-yl)-1,4-dihydro-thieno[2′,3′:4,5]cyclopenta [1,2-c]pyrazol-6-yl)benzyl)morpholin-3-one] | < 6.00 | < 5.00 | < 5.00 | < 5.00
Cn1ncc2ccc(-c3n[nH]c4c3Cc3sc(-c5csc(C(=O)N6CCOCC6)n5)cc3-4)cc21 [Compound 60, (4-(3-(1-methyl-1H-indazol-6-yl)-1,4-dihydro-thieno[2′,3′:4,5]cyclopenta [1,2-c]pyrazol-6-yl)thiazol-2-yl)(morpholino) methanone] | < 6.00 | 5.00 to 6.00 | 5.00 to 6.00 | 5.00 to 6.00
